In experiment [1] the target is B-cell receptor CD22 (Homo sapiens) (UniProt P20273). The experiment can be described thus: Inhibition of hFc tagged CD22 (unknown origin) assessed as relative inhibitory potency incubated for 4 hrs by ELISA relative to 1,4-Bis-(2-aza-1-oxo-8-(sodium-(5-acetamido-3,5-dideoxy-D-glycero-alpha-D-galacto-non-2-ulopyranosyloxyonate))-5-thia-octyl)benzene. On the technique in general: An ELISA detects its analyte on a solid surface through an enzyme-linked reagent.

Experiment [2] addresses T1, B-cell receptor CD22 (Homo sapiens, UniProt P20273).
T1 sequence (P20273 whole entry): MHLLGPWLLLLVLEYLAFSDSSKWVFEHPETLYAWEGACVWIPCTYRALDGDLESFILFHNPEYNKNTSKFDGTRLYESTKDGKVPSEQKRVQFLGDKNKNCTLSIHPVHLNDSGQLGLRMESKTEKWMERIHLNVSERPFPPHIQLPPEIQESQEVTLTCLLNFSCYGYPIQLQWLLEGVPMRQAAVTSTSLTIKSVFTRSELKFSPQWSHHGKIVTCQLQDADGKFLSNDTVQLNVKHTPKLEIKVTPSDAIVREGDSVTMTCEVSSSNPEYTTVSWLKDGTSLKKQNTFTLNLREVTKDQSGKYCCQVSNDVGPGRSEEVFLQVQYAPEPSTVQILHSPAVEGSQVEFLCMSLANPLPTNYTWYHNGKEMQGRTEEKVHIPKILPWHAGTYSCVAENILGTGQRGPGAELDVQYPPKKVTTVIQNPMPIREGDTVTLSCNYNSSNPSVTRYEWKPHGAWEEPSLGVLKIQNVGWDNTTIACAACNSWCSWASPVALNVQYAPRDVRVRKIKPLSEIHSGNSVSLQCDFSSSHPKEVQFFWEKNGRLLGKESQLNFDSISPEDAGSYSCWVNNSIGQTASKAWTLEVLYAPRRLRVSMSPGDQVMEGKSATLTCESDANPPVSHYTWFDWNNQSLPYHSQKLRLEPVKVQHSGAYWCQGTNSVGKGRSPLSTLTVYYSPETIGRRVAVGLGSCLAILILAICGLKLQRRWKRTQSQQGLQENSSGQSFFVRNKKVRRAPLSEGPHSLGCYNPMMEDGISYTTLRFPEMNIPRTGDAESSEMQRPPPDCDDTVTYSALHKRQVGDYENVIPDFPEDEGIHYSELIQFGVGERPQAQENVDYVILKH
Briefly: Inhibition hFc tagged CD22 incubated for 4 hrs by ELISA.

For experiment [3], the target named is T1, B-cell receptor CD22. The experiment can be described thus: Inhibition of CD22 in human Daudi cells preincubated for 15 mins followed by biotinylated dimeric 2-(78-biotinoylamino-1,4,7,10,13,16-hexaoxa-octadecyl)-1,4-bis(2-aza-l-oxo-8-(sodium(5-acetamido-3,5,9-trideoxy-9-(4-phenylbenzamido)-D-glycero-a-D-galacto-non-2-ulopyranosyloxyonate))-5-thia-octyl) benzene probe addition incubated for 20 mins by flow cytometric analysis. The class given is cell-based. (In general: A flow cytometer gives signals particle by particle.)

The target of experiment [4] is B-cell receptor CD22 (Homo sapiens) (UniProt P20273). Briefly: Inhibition of CD22 (unknown origin) in human Daudi cells assessed as relative inhibitory potency in presence of biotinylated dimeric 2-(78-biotinoylamino-1,4,7,10,13,16-hexaoxa-octadecyl)-1,4-bis(2-aza-l-oxo-8-(sodium(5-acetamido-3,5,9-trideoxy-9-(4-phenylbenzamido)-D-glycero-a-D-galacto-non-2-ulopyranosyloxyonate))-5-thia-octyl) benzene preincubated for 15 mins followed by probe addition incubated for 20 mins by flow cytometric analysis relative to 1,4-Bis-(2-aza-1-oxo-8-(sodium-(5-acetamido-3,5-dideoxy-D-glycero-alpha-D-galacto-non-2-ulopyranosyloxyonate))-5-thia-octyl)benzene. The conditions noted are these: time 35.0 min. It is filed as cell-based.

Experiment [5] has the same target. Briefly: Antagonist activity at CD22 in IgM stimulated human Daudi cells assessed as increase in calcium flux incubated for 10 mins by flow cytometric analysis. It is filed as cell-based. The conditions noted are these: dose 2-200 µM, DDE = dose-dependent effect.
For experiment [6] the target is unchanged. The experiment can be described thus: Inhibition of CD22 in human Daudi cells assessed as relative inhibitory potency in presence of biotinylated dimeric 2-(78-biotinoylamino-1,4,7,10,13,16-hexaoxa-octadecyl)-1,4-bis(2-aza-l-oxo-8-(sodium(5-acetamido-3,5,9-trideoxy-9-(4-phenylbenzamido)-D-glycero-a-D-galacto-non-2-ulopyranosyloxyonate))-5-thia-octyl) benzene preincubated for 15 mins followed by probe addition incubated for 20 mins by flow cytometric analysis relative to 1,4-bis-(2-Aza-1-oxo-8-(sodium(5-acetamido-3,5,9-trideoxy-9-(4-phenylbenzamido)-D-glycero-alpha-D-galacto-non-2-ulopyranosyloxyonate))-5-thia-octyl)benzene. It is filed as cell-based. The settings on record: time 35.0 min.

The target is the same in experiment [7]. The experiment can be described thus: Inhibition of to hFc tagged CD22 (unknown origin) assessed as relative inhibitory potency incubated for 4 hrs by ELISA relative to 1,4-bis-(2-Aza-1-oxo-8-(sodium(5-acetamido-3,5,9-trideoxy-9-(4-phenylbenzamido)-D-glycero-alpha-D-galacto-non-2-ulopyranosyloxyonate))-5-thia-octyl)benzene.

What is called IC50 is the point on the concentration scale where inhibition reaches its midpoint. A high value points to lower potency. Take `CC(=O)N[C@H]1[C@H]([C@H](O)[C@H](O)CNC(=O)c2ccc(-c3ccccc3)cc2)O[C@@](OCCCSCCNC(=O)c2ccc(C(=O)NCCSCCCO[C@]3(C(=O)O)C[C@H](O)[C@@H](NC(C)=O)[C@H]([C@H](O)[C@H](O)CNC(=O)c4ccc(-c5ccccc5)cc4)O3)cc2)(C(=O)O)C[C@@H]1O`: the results for the fold change (FC) in experiment [1] and in experiment [4] were 100 and 2940, respectively. Further, the results for the IC50 against B-cell receptor CD22 [2] and against B-cell receptor CD22 [3] were 0.41 nM and 2200 nM, respectively. Further, in experiment [5], the Activity entry is “Dde”.
For `CC(=O)N[C@H]1[C@H]([C@H](O)[C@H](O)CNC(=O)c2ccc(-c3ccccc3)cc2)O[C@@](OCCCSCCNC(=O)c2ccccc2)(C(=O)O)C[C@@H]1O`, in experiment [1], the fold change (FC) was 128. This compound registered an IC50 against B-cell receptor CD22 [2] of 0.32 nM.
With `CC(=O)N[C@H]1[C@H]([C@H](O)[C@H](O)CNC(=O)c2ccc(-c3ccccc3)cc2)O[C@@](OCCCSCCNC(=O)CCCCC(=O)NCCSCCCO[C@]2(C(=O)O)C[C@H](O)[C@@H](NC(C)=O)[C@H]([C@H](O)[C@H](O)CNC(=O)c3ccc(-c4ccccc4)cc3)O2)(C(=O)O)C[C@@H]1O`, the fold change (FC) in experiment [6] was determined as 0.073; in experiment [7] it was 0.77. Also, on B-cell receptor CD22 [3], 24000 nM corresponded to half-maximal inhibition (IC50).
Consider `CC(=O)N[C@H]1[C@H]([C@H](O)[C@H](O)CNC(=O)c2ccc(-c3ccccc3)cc2)O[C@@](OCCCSCCNC(=O)c2ccc(C(=O)NCCSCCCO[C@]3(C(=O)O)C[C@H](O)[C@@H](NC(C)=O)[C@H]([C@H](O)[C@H](O)CNC(=O)c4ccc(C5CCCCC5)cc4)O3)cc2)(C(=O)O)C[C@@H]1O`, for which the fold change (FC) in experiment [4] stood at 185.
`CC(=O)N[C@H]1[C@H]([C@H](O)[C@H](O)CO)O[C@@](OCCCSCCNC(=O)c2ccc(C(=O)NCCSCCCO[C@]3(C(=O)O)C[C@H](O)[C@@H](NC(C)=O)[C@H]([C@H](O)[C@H](O)CNC(=O)c4ccc(-c5ccccc5)cc4)O3)cc2)(C(=O)O)C[C@@H]1O`: the fold change (FC) in experiment [1] worked out at 105; in experiment [4], 135. For the same compound, the midpoint of inhibition against B-cell receptor CD22 [2], the IC50, lay at 0.39 nM. Besides, the Activity entry in experiment [5] is “Dde”.
